Entries after “also recorded” stand apart in the source; their conditions may differ.
Assays:
[1] = test system: PC12 cells; experiment: DOPAL toxicity in vitro, viable PC12 cell count (trypan blue); conditions: for PC 12 cells/well × 103: rat
Method: Determination of DOPAL toxicity in vitro Toxicity experiments were essentially as described previously. PC12 cultures were initially expanded in T-75 flasks with 20 ml Dulbecco's Modified Eagle's Medium supplemented with 4.5 g/l glucose, 4 mM L-glutamine, 5% fetal calf serum, 10% horse serum, 1000 units/l penicillin, and 100 mg/l streptomycin. Cells were transferred to six well culture plates with 2 ml media and grown to 1.5×10^5 cells/well, treated with 50 ng/ml nerve growth factor (NGF), and maintained in NGF-containing media for 7 d prior to experimentation. The medium was changed every 2-3 d. […] During the experiments, the medium was replaced once a day. Cells were detached with buffered saline containing EDT A, centrifuged at 200×g and resuspended in trypan blue for counting of viable cells. […] DOPAL and other compounds were added as described in the description of the figure and examples. Data was analyzed by ANOVA.
DOPAL, as well as other physiologically metabolites and adducts, were added to PC12 cells in culture at concentrations that were physiologically relevant.

[2] = target: T1, α-synuclein (Rattus norvegicus, UniProt P37377); experiment: DOPAL-triggered α-synuclein aggregation in vivo, intranigral injection, Western blot; conditions: rat SN injected with 1 μg or 0.2 μg DOPAL, 1 and 4 hours
T1 construct: from tissue; host or cells: substantia nigra of Sprague-Dawley rats
Text: Western blot of DOPAL-triggered AS aggregation in vivo Intranigral DOPAL injections and tissue preparation for Western blot. The housing and nutrition of the rats used in this study and all procedures performed on them conformed to standards set forth in the Guide for the Care and Use of Laboratory Animals of the National Research Council (National Academy Press, 1996). The experimental protocols reported herein were reviewed and approved by the Animal Care Committee of the Saint Louis University.
The details of the surgical and immunohistochemical methods have been previously described (Burke et al., Brain Res 989:205-213, 2003). Briefly, 2-month-old Sprague-Dawley rats (300 g; Harlan, Indianapolis, Ind., USA) were deeply anesthetized with 4% induction and maintained with 1% isoflurane. The heads of the rats were fixed in a stereotaxic apparatus (David Kopf, Tujunga, CA, USA). […]
Rats for Western blot analysis were killed after 4 h by injecting pentobarbital (100 mg/kg, IP). […] The black microspheres were identified in the pellets and supernatants were analyzed with Western blot as described above using AS 202 and J3-actin antibodies. For the 4-h 1.0-μg DOPAL and control SN injections, the density of the bands on the blot was determined using the UnScan it program (Silk Scientific, Orem, Utah, USA). The results were expressed as units of AS aggregate/unit of actin. […]

[3] = test system: rats; experiment: Rotational asymmetry after apomorphine; type: in vivo, rat; conditions: apomorphine 0.4 mg/kg, n=6, p, 0.05 vs control rats
Method: Determination of DOPAL-induced Parkinson's disease-like behavior Injections of DOPAL or ALDH1A1 antisense oligo into rat SN. To determine if increased levels of DOPAL in SN produces a behavioral model of PD, 3 groups of rats were tested: unilateral SN injection of 4 μg DOPAL in 6 rats; unilateral SN injection of 0.56 μg antisense oligonucleotide (oligo) targeted to aldehyde dehydrogenase (ALDH1A1) mRNA, the DOPAL catabolic enzyme in 3 rats; 5 non-injected rats. After 5-7 weeks, rats were injected with apomorphine (0.4 mg/kg, subcutaneously) and rotational asymmetry determined in each group just prior to sacrifice. After the brains were fixed and sectioned, the SN, and forebrain were stained immunohistochemically for tyrosine hydroxylase immunoreactivity (THir). See Section 3.
Determination of rotational asymmetry. Rats first were injected subcutaneously with the dopamine agonist apomorphine (0.4 mg/kg) dissolved in 0.1 ascorbate saline solution. After waiting 5 min in their home cage, they were placed in a hemispheric rotation bowl 40 cm wide and 20 cm deep. Rotational behavior was then determined for 30 min and the number of ipsilateral and contralateral turns quantified by observation.
Rotational asymmetry was assessed to quantify the effect of unilateral depletions of striatal dopamine from disruptions of nigrostriatal circuitry. The rotational asymmetry behavior of rats (n=6) changed dramatically after injections with DOPAL (FIG. 5).
Behavioral asymmetry is considered the standard behavioral test for rodent models of Parkinson's disease. The column on the right is a summary of all the behaviors recorded in the rotational asymmetry test for all the rats ([…]).

Q: Which results are given for `O=CCc1ccc(O)c(O)c1` [DOPAL, 3,4-dihydroxyphenylacetaldehyde]?
A: toxic in vitro at physiological levels [1]: toxic; PC 12 cells/well × 103 ([1]; 6.6 μM): 105 ± 12b cells/well × 103; PC 12 cells/well × 103 ([1]; 30 μM): 107 ± 10b cells/well × 103; PC 12 cells/well × 103 ([1]; 66 μM): 100 ± 5a cells/well × 103; aggregation of α-synuclein in vivo [2]: triggers a selective dose and time dependent aggregation; also recorded: even small amounts of DOPAL still aggregate α-synuclein; rotational asymmetry after unilateral DOPAL injection into SN [3]: significantly preferred turning towards the side of the injection; also recorded: turning significantly towards the side of DOPAL injections

From patent US20120005765A1, “ANIMAL MODEL FOR PARKINSON'S DISEASE” (Saint Louis University, priority 2010, published 2012)
